Test results published in ChEMBL document CHEMBL1166002, “Vanchrobactin and anguibactin siderophores produced by Vibrio sp. DS40M4” (J Nat Prod, 2010).

tested on: PC-3; experiment: Cytotoxicity against human PC3 cells by MTT assay; assay type: functional, cell-based; call rule not given here

SMILES	IC50
N=C(N)NCCC[C@@H](NC(=O)c1cccc(O)c1O)C(=O)N[C@@H](COC(=O)[C@H](CO)NC(=O)[C@@H](CCCNC(=N)N)NC(=O)c1cccc(O)c1O)C(=O)O [DIVANCHROBACTIN]	Not Active
N=C(N)NCCC[C@@H](NC(=O)c1cccc(O)c1O)C(=O)N[C@@H](COC(=O)[C@H](COC(=O)[C@H](CO)NC(=O)[C@@H](CCCNC(=N)N)NC(=O)c1cccc(O)c1O)NC(=O)[C@@H](CCCNC(=N)N)NC(=O)c1cccc(O)c1O)C(=O)O [TRIVANCHROBACTIN]	Not Active
N=C(N)NCCC[C@@H](NC(=O)c1cccc(O)c1O)C(=O)N[C@@H](CO)C(=O)O [VANCHROBACTIN]	Not Active
